Tests used:
T-tropic HIV = conditions: patients that are dual tropic or with only the T-tropic form of the virus; cited from earlier work
HIV-1 = assay: HIV infectivity assay (Table 2, strain not given); type: cell-based; conditions: Human immunodeficiency virus 1, read-out: Activity Level
Procedure, shortened: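 HOS cells expressing hCXCR4/hCCR5/hCD4 with HIV-LTR-luciferase, pre-treated 1 h with compound at 37 °C, then infected with HIV-1 Ba-L or IIIB (~2 million RLU/well) for 96 h. Infection read by Steady-Glo luciferase; cytotoxicity in uninfected cultures by CellTiter-Glo.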

SMILES | T-tropic HIV viral load (T-tropic HIV) | IC50 (HIV-1) [nM]
c1cc(CN2CCCNCCNCCCNCC2)ccc1CN1CCCNCCNCCCNCC1 [AMD-3100] | significantly reduce | –
CC(C)N1CCN(c2cccc3nc(CN4CCC[C@H]5CCc6cccnc6[C@H]54)cn23)CC1 [Example 82, (4aR,10bS)-1-({5-[4-(1-methylethyl)-1-piperazinyl]imidazo[1,2-a]pyridin-2-yl}methyl)-1,2,3,4,4a,5,6,10b-octahydro-1,10-phenanthroline] | – | < 100
CN(C)C1CCN(c2cccc3nc(CN4CCC[C@H]5CCc6cccnc6[C@H]54)cn23)CC1 [Example 67, 1-{2-[(4aR,10bS)-3,4,4a,5,6,10b-hexahydro-1,10-phenanthrolin-1(2H)-ylmethyl]imidazo[1,2-a]pyridin-5-yl}-N,N-dimethyl-4-piperidinamine] | – | < 100
NC1CN(c2cccc3nc(CN4CCC[C@H]5CCc6cccnc6[C@H]54)cn23)C1 [Example 97, 1-{2-[(4aR,10bS)-3,4,4a,5,6,10b-hexahydro-1,10-phenanthrolin-1(2H)-ylmethyl]imidazo[1,2-a]pyridin-5-yl}-3-azetidinamine] | – | < 100
CN(C)[C@H]1CCN(c2cccc3nc(CN4CCC[C@H]5CCc6cccnc6[C@H]54)cn23)C1 [Example 100, (3S)-1-{2-[(4aR,10bS)-3,4,4a,5,6,10b-hexahydro-1,10-phenanthrolin-1(2H)-ylmethyl]imidazo[1,2-a]pyridin-5-yl}-N,N-dimethyl-3-pyrrolidinamine] | – | < 100
CN1CCCC(Cn2c(CN3CCC[C@@H]4CCc5cccnc5[C@H]43)nc3ccccc32)C1 (relative stereo) [Example 42, (trans) 1-({1-[(1-methyl-3-piperidinyl)methyl]-1H-benzimidazol-2-yl}methyl)-1,2,3,4,4a,5,6,10b-octahydro-1,10-phenanthroline] | – | 100 to 500
CN(C)CCN(C)c1cccc2nc(CN3CCC[C@H]4CCc5cccnc5[C@H]43)cn12 [Example 70, N-{2-[(4aR,10bS)-3,4,4a,5,6,10b-hexahydro-1,10-phenanthrolin-1(2H)-ylmethyl]imidazo[1,2-a]pyridin-5-yl}-N,N′,N′-trimethyl-1,2-ethanediamine] | – | < 100
CN(C)C1CN(c2cccc3nc(CN4CCC[C@H]5CCc6cccnc6[C@H]54)cn23)C1 [Example 98, 1-{2-[(4aR,10bS)-3,4,4a,5,6,10b-hexahydro-1,10-phenanthrolin-1(2H)-ylmethyl]imidazo[1,2-a]pyridin-5-yl}-N,N-dimethyl-3-azetidinamine] | – | 100 to 500
CN1CCC(N(C)c2cccc3nc(CN4CCC[C@H]5CCc6cccnc6[C@H]54)cn23)C1 (stereo partly drawn) [Example 75, 2-[(4aR,10bS)-3,4,4a,5,6,10b-hexahydro-1,10-phenanthrolin-1(2H)-ylmethyl]-N-methyl-N-(1-methyl-3-pyrrolidinyl)imidazo[1,2-a]pyridin-5-amine] | – | < 100
c1cnc2c(c1)CC[C@@H]1CCCN(Cc3cn4c(N5CCSCC5)cccc4n3)[C@H]21 [Example 78, (4aR,10bS)-1-{[5-(4-thiomorpholinyl)imidazo[1,2-a]pyridin-2-yl]methyl}-1,2,3,4,4a,5,6,10b-octahydro-1,10-phenanthroline] | – | 100 to 500
c1cnc2c(c1)CC[C@@H]1CCCN(Cc3cn4c(N5CCC(C6CCN(c7cccc8nc(CC9CCC[C@H]%10CCc%11cccnc%11[C@@H]9%10)cn78)CC6)CC5)cccc4n3)[C@H]21 (stereo partly drawn) [Example 76b, (4aR,10bS)-1-{[5-(1′-{2-[(6aS,10aR)-5,6,6a,7,8,9,10,10a-octahydrobenzo[h]quinolin-10-ylmethyl]imidazo[1,2-a]pyridin-5-yl}-4,4′-bipiperidin-1-yl)imidazo[1,2-a]pyridin-2-yl]methyl}-1,2,3,4,4a,5,6,10b-octahydro-1,10-phenanthroline] | – | 500 to 10000

From patent publication US20090093454A1, “Chemical Compounds” (priority 2005, published 2009)
